Measurements as given in the kinase profiling compilation of Christmann-Franck et al. (2016).

Columns and labels:
Assay in all cases: KINOMEscan competition binding
Conditions in all cases: compound 10.0 µM
ACVR1B (human) = ACVR1B (human) (UniProt P36896)
CDK9 (human) = CDK9 (human) (UniProt P50750)
RPS6KA6 KD1 (human) = RPS6KA6 KD1 (human) (UniProt Q9UK32)
NLK (human) = NLK (human) (UniProt Q9UBE8)
STK32B (human) = STK32B (human) (UniProt Q9NY57)
MAP3K12 (human) = MAP3K12 (human) (UniProt Q12852)
[1] = system: ABL1 (human), P00519 [E255K]
PRKD2 (human) = PRKD2 (human) (UniProt Q9BZL6)
FGR (human) = FGR (human) (UniProt P09769)
[2] = system: EGFR (human), P00533 [L861Q]
PAK4 (human) = PAK4 (human) (UniProt O96013)
SRPK2 (human) = SRPK2 (human) (UniProt P78362)
ACVRL1 (human) = ACVRL1 (human) (UniProt P37023)
CSNK1G3 (human) = CSNK1G3 (human) (UniProt Q9Y6M4)
CHUK (human) = CHUK (human) (UniProt O15111)
STK17A (human) = STK17A (human) (UniProt Q9UEE5)
STK24 (human) = STK24 (human) (UniProt Q9Y6E0)
BMPR2 (human) = BMPR2 (human) (UniProt Q13873)
NTRK1 (human) = NTRK1 (human) (UniProt P04629)
TAOK3 (human) = TAOK3 (human) (UniProt Q9H2K8)
MARK4 (human) = MARK4 (human) (UniProt Q96L34)
TGFBR1 (human) = TGFBR1 (human) (UniProt P36897)
MAPK6 (human) = MAPK6 (human) (UniProt Q16659)
TGFBR2 (human) = TGFBR2 (human) (UniProt P37173)
PRKAA1 (human) = PRKAA1 (human) (UniProt Q13131)
MAPK13 (human) = MAPK13 (human) (UniProt O15264)
FLT1 (human) = FLT1 (human) (UniProt P17948)
PTK2B (human) = PTK2B (human) (UniProt Q14289)
MYLK3 (human) = MYLK3 (human) (UniProt Q32MK0)
[3] = system: EGFR (human), P00533 [P753S; 747-752 del]
EPHA7 (human) = EPHA7 (human) (UniProt Q15375)
MET (human) = MET (human) (UniProt P08581)
PIM2 (human) = PIM2 (human) (UniProt Q9P1W9)
[4] = system: KIT (human), P10721 [D816V]
PRKG1 (human) = PRKG1 (human) (UniProt Q13976)
DAPK3 (human) = DAPK3 (human) (UniProt O43293)
CAMK2D (human) = CAMK2D (human) (UniProt Q13557)
MAPK14 (human) = MAPK14 (human) (UniProt Q16539)
DCLK1 (human) = DCLK1 (human) (UniProt O15075)
ADCK4 (human) = ADCK4 (human) (UniProt Q96D53)
CDC2L2 (human) = CDC2L2 (human) (UniProt Q9UQ88)
STK35 (human) = STK35 (human) (UniProt Q8TDR2)

TGFBR1 (human), sequence (P36897 whole entry, looked up): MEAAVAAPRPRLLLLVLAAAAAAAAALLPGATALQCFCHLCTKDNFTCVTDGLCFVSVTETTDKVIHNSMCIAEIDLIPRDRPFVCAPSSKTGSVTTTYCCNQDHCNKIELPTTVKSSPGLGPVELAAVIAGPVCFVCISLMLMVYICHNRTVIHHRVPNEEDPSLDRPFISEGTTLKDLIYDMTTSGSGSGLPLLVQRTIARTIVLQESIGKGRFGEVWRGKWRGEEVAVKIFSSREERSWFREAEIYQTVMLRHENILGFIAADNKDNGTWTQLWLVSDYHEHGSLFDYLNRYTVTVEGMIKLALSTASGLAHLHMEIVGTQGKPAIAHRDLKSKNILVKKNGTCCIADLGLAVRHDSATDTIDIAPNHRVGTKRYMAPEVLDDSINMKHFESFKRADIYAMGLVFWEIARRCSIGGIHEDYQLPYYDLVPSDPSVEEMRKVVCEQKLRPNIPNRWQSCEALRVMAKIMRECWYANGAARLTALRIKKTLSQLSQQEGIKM
MYLK3 (human), sequence (Q32MK0 whole entry, looked up): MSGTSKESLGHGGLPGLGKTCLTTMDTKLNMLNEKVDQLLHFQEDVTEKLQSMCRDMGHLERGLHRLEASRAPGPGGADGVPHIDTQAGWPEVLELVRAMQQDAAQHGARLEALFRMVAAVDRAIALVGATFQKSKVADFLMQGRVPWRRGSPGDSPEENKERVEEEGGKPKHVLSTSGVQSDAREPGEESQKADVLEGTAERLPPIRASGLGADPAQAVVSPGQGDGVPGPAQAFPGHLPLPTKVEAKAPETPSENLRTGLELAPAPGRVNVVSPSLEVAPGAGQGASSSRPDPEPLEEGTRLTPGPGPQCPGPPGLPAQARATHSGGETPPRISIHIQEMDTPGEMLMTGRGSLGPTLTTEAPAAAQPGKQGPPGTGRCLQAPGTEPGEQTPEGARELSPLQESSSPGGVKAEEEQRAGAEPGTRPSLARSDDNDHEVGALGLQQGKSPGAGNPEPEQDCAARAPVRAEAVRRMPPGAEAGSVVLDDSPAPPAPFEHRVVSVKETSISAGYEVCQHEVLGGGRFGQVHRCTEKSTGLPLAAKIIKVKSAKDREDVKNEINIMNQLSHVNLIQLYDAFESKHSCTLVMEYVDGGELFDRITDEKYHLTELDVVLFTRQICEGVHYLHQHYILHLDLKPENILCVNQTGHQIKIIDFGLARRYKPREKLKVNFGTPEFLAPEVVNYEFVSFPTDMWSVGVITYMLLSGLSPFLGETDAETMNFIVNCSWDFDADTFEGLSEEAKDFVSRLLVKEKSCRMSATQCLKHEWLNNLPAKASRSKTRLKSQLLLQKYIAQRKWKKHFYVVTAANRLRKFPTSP
STK32B (human), sequence (Q9NY57 whole entry, looked up): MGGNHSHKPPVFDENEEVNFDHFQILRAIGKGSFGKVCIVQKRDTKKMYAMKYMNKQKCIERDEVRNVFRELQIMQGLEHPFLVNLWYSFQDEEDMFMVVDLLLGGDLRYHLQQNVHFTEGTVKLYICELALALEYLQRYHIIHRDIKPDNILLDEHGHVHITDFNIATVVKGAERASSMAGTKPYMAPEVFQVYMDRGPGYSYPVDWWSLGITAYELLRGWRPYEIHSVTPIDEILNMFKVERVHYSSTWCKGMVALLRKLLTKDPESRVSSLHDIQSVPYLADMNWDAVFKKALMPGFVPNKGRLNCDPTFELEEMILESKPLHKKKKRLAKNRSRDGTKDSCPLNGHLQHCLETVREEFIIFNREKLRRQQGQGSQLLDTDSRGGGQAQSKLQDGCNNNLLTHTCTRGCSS
STK24 (human), sequence (Q9Y6E0 whole entry, looked up): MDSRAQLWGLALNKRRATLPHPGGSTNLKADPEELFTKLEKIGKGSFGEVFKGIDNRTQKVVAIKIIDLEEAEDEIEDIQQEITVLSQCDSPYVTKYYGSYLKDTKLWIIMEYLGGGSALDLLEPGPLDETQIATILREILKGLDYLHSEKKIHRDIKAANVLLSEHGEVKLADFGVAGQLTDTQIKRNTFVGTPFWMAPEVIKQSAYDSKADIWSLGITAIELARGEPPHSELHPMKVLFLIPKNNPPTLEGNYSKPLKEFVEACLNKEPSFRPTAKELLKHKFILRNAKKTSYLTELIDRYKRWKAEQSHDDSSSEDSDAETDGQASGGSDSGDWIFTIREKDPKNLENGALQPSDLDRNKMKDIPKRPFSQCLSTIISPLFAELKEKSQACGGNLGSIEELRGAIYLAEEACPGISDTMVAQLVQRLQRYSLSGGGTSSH
CAMK2D (human), sequence (Q13557 whole entry, looked up): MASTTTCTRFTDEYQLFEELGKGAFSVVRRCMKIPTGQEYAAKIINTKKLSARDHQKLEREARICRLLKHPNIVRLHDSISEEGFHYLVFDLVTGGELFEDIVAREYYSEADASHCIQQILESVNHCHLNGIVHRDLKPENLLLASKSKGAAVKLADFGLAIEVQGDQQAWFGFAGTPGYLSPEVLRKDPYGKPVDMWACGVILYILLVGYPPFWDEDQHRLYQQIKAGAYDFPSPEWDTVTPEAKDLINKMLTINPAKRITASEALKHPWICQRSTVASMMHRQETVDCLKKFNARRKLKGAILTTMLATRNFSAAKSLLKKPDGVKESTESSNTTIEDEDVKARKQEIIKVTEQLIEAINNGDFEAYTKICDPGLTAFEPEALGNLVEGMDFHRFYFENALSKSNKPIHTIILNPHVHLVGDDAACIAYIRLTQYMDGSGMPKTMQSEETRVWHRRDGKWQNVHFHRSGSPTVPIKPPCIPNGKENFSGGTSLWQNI
DAPK3 (human), sequence (O43293 whole entry, looked up): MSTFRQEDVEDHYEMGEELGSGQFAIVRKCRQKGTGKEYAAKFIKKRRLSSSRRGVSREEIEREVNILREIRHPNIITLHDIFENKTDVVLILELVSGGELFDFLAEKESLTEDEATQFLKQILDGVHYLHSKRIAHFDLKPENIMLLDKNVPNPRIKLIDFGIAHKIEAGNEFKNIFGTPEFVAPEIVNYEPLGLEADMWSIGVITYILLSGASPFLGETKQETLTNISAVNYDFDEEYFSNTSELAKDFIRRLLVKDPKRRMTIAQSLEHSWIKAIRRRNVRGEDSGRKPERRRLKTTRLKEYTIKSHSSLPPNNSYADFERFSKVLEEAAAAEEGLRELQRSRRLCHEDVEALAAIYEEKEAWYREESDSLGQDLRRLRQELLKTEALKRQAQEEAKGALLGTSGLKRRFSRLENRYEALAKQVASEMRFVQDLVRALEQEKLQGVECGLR
PRKD2 (human), sequence (Q9BZL6 whole entry, looked up): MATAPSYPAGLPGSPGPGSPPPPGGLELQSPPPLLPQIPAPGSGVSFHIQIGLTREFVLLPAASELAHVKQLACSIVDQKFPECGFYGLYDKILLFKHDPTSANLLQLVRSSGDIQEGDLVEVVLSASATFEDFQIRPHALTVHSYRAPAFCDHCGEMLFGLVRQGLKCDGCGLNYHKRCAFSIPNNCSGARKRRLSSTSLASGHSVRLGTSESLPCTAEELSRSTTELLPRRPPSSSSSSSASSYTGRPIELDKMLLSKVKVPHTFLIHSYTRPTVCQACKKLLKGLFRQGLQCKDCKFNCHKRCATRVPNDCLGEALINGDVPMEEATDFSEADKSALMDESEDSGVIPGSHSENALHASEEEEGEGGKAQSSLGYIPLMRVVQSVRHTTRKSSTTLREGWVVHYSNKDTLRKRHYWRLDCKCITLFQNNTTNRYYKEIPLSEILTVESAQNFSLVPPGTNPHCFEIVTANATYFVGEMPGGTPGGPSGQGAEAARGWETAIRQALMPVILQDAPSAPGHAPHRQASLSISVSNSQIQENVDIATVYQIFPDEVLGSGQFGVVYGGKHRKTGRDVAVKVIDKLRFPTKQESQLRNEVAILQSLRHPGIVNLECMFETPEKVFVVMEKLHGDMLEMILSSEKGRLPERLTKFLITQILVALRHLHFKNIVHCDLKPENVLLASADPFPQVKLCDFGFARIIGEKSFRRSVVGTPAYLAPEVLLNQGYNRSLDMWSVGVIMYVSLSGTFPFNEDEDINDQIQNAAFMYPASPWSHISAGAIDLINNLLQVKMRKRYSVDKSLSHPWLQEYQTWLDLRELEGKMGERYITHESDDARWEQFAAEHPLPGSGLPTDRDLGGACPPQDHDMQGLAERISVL
STK17A (human), sequence (Q9UEE5 whole entry, looked up): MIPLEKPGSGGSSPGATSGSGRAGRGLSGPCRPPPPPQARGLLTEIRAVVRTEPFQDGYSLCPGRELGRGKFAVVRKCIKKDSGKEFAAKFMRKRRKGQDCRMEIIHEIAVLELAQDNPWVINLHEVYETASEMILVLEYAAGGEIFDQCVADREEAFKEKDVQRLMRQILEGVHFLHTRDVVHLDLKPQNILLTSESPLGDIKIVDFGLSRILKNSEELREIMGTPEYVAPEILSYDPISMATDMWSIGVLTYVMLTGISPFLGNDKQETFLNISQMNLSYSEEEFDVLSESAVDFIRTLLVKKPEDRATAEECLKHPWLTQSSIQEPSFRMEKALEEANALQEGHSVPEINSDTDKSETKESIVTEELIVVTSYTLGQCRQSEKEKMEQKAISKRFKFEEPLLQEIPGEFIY
CDK9 (human), sequence (P50750 whole entry, looked up): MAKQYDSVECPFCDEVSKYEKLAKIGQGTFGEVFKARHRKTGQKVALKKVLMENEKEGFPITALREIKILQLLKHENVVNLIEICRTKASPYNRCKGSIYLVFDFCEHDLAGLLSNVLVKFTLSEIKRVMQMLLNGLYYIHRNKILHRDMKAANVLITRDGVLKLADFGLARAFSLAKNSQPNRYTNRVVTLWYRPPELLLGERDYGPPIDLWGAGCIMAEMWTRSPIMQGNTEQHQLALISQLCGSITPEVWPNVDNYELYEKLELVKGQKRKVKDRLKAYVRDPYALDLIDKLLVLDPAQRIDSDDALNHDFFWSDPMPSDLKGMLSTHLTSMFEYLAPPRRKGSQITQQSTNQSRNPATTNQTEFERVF

## COc1cc(N2CCC(N3CCN(C)CC3)CC2)ccc1Nc1ncc(Cl)c(Nc2ccccc2S(=O)(=O)C(C)C)n1
ACVR1B (human)
  kinase still bound, per cent of control: 0.05%
CDK9 (human)
  kinase still bound, per cent of control: 40%
RPS6KA6 KD1 (human)
  kinase still bound, per cent of control: 1.1%
NLK (human)
  kinase still bound, per cent of control: 40%
STK32B (human)
  kinase still bound, per cent of control: 0.2%
MAP3K12 (human)
  kinase still bound, per cent of control: 0%
[1]
  kinase still bound, per cent of control: 19%
PRKD2 (human)
  kinase still bound, per cent of control: 0.05%
FGR (human)
  kinase still bound, per cent of control: 2.8%
[2]
  kinase still bound, per cent of control: 0.15%
PAK4 (human)
  kinase still bound, per cent of control: 9.6%
SRPK2 (human)
  kinase still bound, per cent of control: 12%
ACVRL1 (human)
  kinase still bound, per cent of control: 1.7%
CSNK1G3 (human)
  kinase still bound, per cent of control: 40%
CHUK (human)
  kinase still bound, per cent of control: 40%
STK17A (human)
  kinase still bound, per cent of control: 5.9%
STK24 (human)
  kinase still bound, per cent of control: 24%
BMPR2 (human)
  kinase still bound, per cent of control: 40%
NTRK1 (human)
  kinase still bound, per cent of control: 12%
TAOK3 (human)
  kinase still bound, per cent of control: 0.1%
MARK4 (human)
  kinase still bound, per cent of control: 0%
TGFBR1 (human)
  kinase still bound, per cent of control: 0.2%
MAPK6 (human)
  kinase still bound, per cent of control: 40%
TGFBR2 (human)
  kinase still bound, per cent of control: 2.7%
PRKAA1 (human)
  kinase still bound, per cent of control: 0.1%
MAPK13 (human)
  kinase still bound, per cent of control: 40%
FLT1 (human)
  kinase still bound, per cent of control: 2.8%
PTK2B (human)
  kinase still bound, per cent of control: 0%
MYLK3 (human)
  kinase still bound, per cent of control: 40%
[3]
  kinase still bound, per cent of control: 0.95%
EPHA7 (human)
  kinase still bound, per cent of control: 0.4%
MET (human)
  kinase still bound, per cent of control: 0%
PIM2 (human)
  kinase still bound, per cent of control: 40%
[4]
  kinase still bound, per cent of control: 3.1%
PRKG1 (human)
  kinase still bound, per cent of control: 1.3%
DAPK3 (human)
  kinase still bound, per cent of control: 4.5%
CAMK2D (human)
  kinase still bound, per cent of control: 4.1%
MAPK14 (human)
  kinase still bound, per cent of control: 40%
DCLK1 (human)
  kinase still bound, per cent of control: 0%
ADCK4 (human)
  kinase still bound, per cent of control: 0%

## CCN1CCN(Cc2ccc(NC(=O)c3ccc(C)c(Oc4ccnc5[nH]ccc45)c3)cc2C(F)(F)F)CC1
CDK9 (human)
  kinase still bound, per cent of control: 5.8%
NLK (human)
  kinase still bound, per cent of control: 14%
[1]
  kinase still bound, per cent of control: 1.2%
CDC2L2 (human)
  kinase still bound, per cent of control: 0.05%
FGR (human)
  kinase still bound, per cent of control: 1.2%
[2]
  kinase still bound, per cent of control: 15%
CHUK (human)
  kinase still bound, per cent of control: 0.95%
STK35 (human)
  kinase still bound, per cent of control: 3%
PRKAA1 (human)
  kinase still bound, per cent of control: 33%
MAPK13 (human)
  kinase still bound, per cent of control: 0.55%
FLT1 (human)
  kinase still bound, per cent of control: 1.6%
PTK2B (human)
  kinase still bound, per cent of control: 2.1%
[3]
  kinase still bound, per cent of control: 1.2%
MAPK14 (human)
  kinase still bound, per cent of control: 0%

## CCN1CCN(Cc2ccc(NC(=O)c3ccc(C)c(/C=C/c4cnc(Nc5cc(N6CCNCC6)nc(C)n5)cn4)c3)cc2C(F)(F)F)CC1
ACVR1B (human)
  kinase still bound, per cent of control: 96%
CDK9 (human)
  kinase still bound, per cent of control: 99%
RPS6KA6 KD1 (human)
  kinase still bound, per cent of control: 100%
NLK (human)
  kinase still bound, per cent of control: 65%
STK32B (human)
  kinase still bound, per cent of control: 100%
MAP3K12 (human)
  kinase still bound, per cent of control: 18%
[1]
  kinase still bound, per cent of control: 0.3%
PRKD2 (human)
  kinase still bound, per cent of control: 76%
CDC2L2 (human)
  kinase still bound, per cent of control: 69%
FGR (human)
  kinase still bound, per cent of control: 4.5%
[2]
  kinase still bound, per cent of control: 0.85%
PAK4 (human)
  kinase still bound, per cent of control: 100%
SRPK2 (human)
  kinase still bound, per cent of control: 100%
ACVRL1 (human)
  kinase still bound, per cent of control: 79%
CSNK1G3 (human)
  kinase still bound, per cent of control: 100%
CHUK (human)
  kinase still bound, per cent of control: 0%
STK17A (human)
  kinase still bound, per cent of control: 11%
STK24 (human)
  kinase still bound, per cent of control: 30%
BMPR2 (human)
  kinase still bound, per cent of control: 100%
NTRK1 (human)
  kinase still bound, per cent of control: 0.45%
TAOK3 (human)
  kinase still bound, per cent of control: 0%
MARK4 (human)
  kinase still bound, per cent of control: 100%
TGFBR1 (human)
  kinase still bound, per cent of control: 99%
STK35 (human)
  kinase still bound, per cent of control: 57%
MAPK6 (human)
  kinase still bound, per cent of control: 100%
TGFBR2 (human)
  kinase still bound, per cent of control: 54%
PRKAA1 (human)
  kinase still bound, per cent of control: 18%
MAPK13 (human)
  kinase still bound, per cent of control: 83%
FLT1 (human)
  kinase still bound, per cent of control: 27%
PTK2B (human)
  kinase still bound, per cent of control: 36%
MYLK3 (human)
  kinase still bound, per cent of control: 59%
[3]
  kinase still bound, per cent of control: 0.2%
EPHA7 (human)
  kinase still bound, per cent of control: 76%
MET (human)
  kinase still bound, per cent of control: 78%
PIM2 (human)
  kinase still bound, per cent of control: 50%
[4]
  kinase still bound, per cent of control: 25%
PRKG1 (human)
  kinase still bound, per cent of control: 100%
DAPK3 (human)
  kinase still bound, per cent of control: 91%
CAMK2D (human)
  kinase still bound, per cent of control: 100%
MAPK14 (human)
  kinase still bound, per cent of control: 4.6%
DCLK1 (human)
  kinase still bound, per cent of control: 97%
ADCK4 (human)
  kinase still bound, per cent of control: 93%

## CCOc1cc(N2CCC(N3CCCCC3)CC2)ccc1Nc1nc(Nc2ccccc2S(=O)(=O)C(C)C)c2cn[nH]c2n1
ACVR1B (human)
  kinase still bound, per cent of control: 100%
CDK9 (human)
  kinase still bound, per cent of control: 100%
RPS6KA6 KD1 (human)
  kinase still bound, per cent of control: 23%
NLK (human)
  kinase still bound, per cent of control: 97%
STK32B (human)
  kinase still bound, per cent of control: 64%
MAP3K12 (human)
  kinase still bound, per cent of control: 100%
[1]
  kinase still bound, per cent of control: 67%
PRKD2 (human)
  kinase still bound, per cent of control: 96%
CDC2L2 (human)
  kinase still bound, per cent of control: 100%
FGR (human)
  kinase still bound, per cent of control: 82%
[2]
  kinase still bound, per cent of control: 7.7%
PAK4 (human)
  kinase still bound, per cent of control: 85%
SRPK2 (human)
  kinase still bound, per cent of control: 100%
ACVRL1 (human)
  kinase still bound, per cent of control: 100%
CSNK1G3 (human)
  kinase still bound, per cent of control: 50%
CHUK (human)
  kinase still bound, per cent of control: 100%
STK17A (human)
  kinase still bound, per cent of control: 100%
STK24 (human)
  kinase still bound, per cent of control: 82%
BMPR2 (human)
  kinase still bound, per cent of control: 85%
NTRK1 (human)
  kinase still bound, per cent of control: 72%
TAOK3 (human)
  kinase still bound, per cent of control: 36%
MARK4 (human)
  kinase still bound, per cent of control: 71%
TGFBR1 (human)
  kinase still bound, per cent of control: 95%
STK35 (human)
  kinase still bound, per cent of control: 100%
MAPK6 (human)
  kinase still bound, per cent of control: 94%
TGFBR2 (human)
  kinase still bound, per cent of control: 100%
PRKAA1 (human)
  kinase still bound, per cent of control: 51%
MAPK13 (human)
  kinase still bound, per cent of control: 100%
FLT1 (human)
  kinase still bound, per cent of control: 100%
PTK2B (human)
  kinase still bound, per cent of control: 5%
MYLK3 (human)
  kinase still bound, per cent of control: 100%
[3]
  kinase still bound, per cent of control: 40%
EPHA7 (human)
  kinase still bound, per cent of control: 100%
MET (human)
  kinase still bound, per cent of control: 100%
PIM2 (human)
  kinase still bound, per cent of control: 100%
[4]
  kinase still bound, per cent of control: 74%
PRKG1 (human)
  kinase still bound, per cent of control: 100%
DAPK3 (human)
  kinase still bound, per cent of control: 83%
CAMK2D (human)
  kinase still bound, per cent of control: 34%
MAPK14 (human)
  kinase still bound, per cent of control: 98%
DCLK1 (human)
  kinase still bound, per cent of control: 5.2%
ADCK4 (human)
  kinase still bound, per cent of control: 29%
